Test results published in ChEMBL document CHEMBL1142285, “Indeno[1,2-c]isoquinolines as enhancing agents on all-trans retinoic acid-mediated differentiation of human myeloid leukemia cells” (2008).

Legend:
Type in all cases: functional, cell-based
[1] = system: HL-60; test: Induction of differentiation in human HL60 cells after 72 hrs by NBT assay
[2] = system: NB-4; test: Induction of differentiation in human NB4 cells after 72 hrs by NBT assay
[3] = system: HL-60; test: Antiproliferative activity against human HL60 cells after 72 hrs by MTT assay
[4] = system: NB-4; test: Antiproliferative activity against human NB4 cells after 72 hrs by MTT assay

Measured: Activity

COc1ccc(Cn2c3c(c4cc(C)ccc4c2=O)C(C)c2ccccc2-3)cc1 (centres undefined)
active: [1] Dose-dependent effect | [2] Dose-dependent effect | [3] Dose-dependent effect | [4] Dose-dependent effect
